Activity calls are given as the source filed them. The calls are words filed in the database; no cut-off is given here.
Columns and labels:
[1] = tested on: Mus musculus; assay: Anti-inflammatory activity in BALB/c mouse model of carrageenan-induced paw edema at 20 mg/kg, po measured for 0.5 to 6 hrs; format: functional, organism-based; settings: time 0.5-6 hrs
[2] = tested on: Mus musculus; assay: Anti-inflammatory activity in BALB/c mouse model of carrageenan-induced paw edema assessed as inhibition of paw swelling at 20 mg/kg, po measured for 2 hrs relative to control; format: functional
[3] = tested on: Mus musculus; assay: Anti-inflammatory activity in BALB/c mouse model of carrageenan-induced paw edema assessed as inhibition of paw swelling at 20 mg/kg, po measured for 6 hrs relative to control; format: functional
[4] = tested on: Mus musculus; assay: Anti-inflammatory activity in BALB/c mouse model of carrageenan-induced paw edema assessed as inhibition of paw swelling at 1 mg/kg, po measured up to 6 hrs relative to control; format: functional
[5] = tested on: Mus musculus; assay: Anti-inflammatory activity in BALB/c mouse model of carrageenan-induced paw edema assessed as inhibition of paw swelling at 10 mg/kg, po measured after 6 hrs relative to control; format: functional
[6] = tested on: Mus musculus; assay: Anti-inflammatory activity in BALB/c mouse model of carrageenan-induced paw edema assessed as inhibition of paw swelling at 1 mg/kg, po measured after 6 hrs relative to control; format: functional
[7] = tested on: Mus musculus; assay: Anti-inflammatory activity in BALB/c mouse model of carrageenan-induced paw edema assessed as increase in ratio of 8,9-EET to DHET plasma levels at 10 mg/kg, po measured after 6 hrs relative to control; format: functional
[8] = tested on: Mus musculus; assay: Anti-inflammatory activity in BALB/c mouse model of carrageenan-induced paw edema assessed as decrease in plasma 8,9-DHET levels at 10 mg/kg, po measured after 6 hrs relative to control; format: functional; set-up: scale not given: the % may be the effect or the level left
[9] = tested on: Mus musculus; assay: Anti-inflammatory activity in BALB/c mouse model of carrageenan-induced paw edema assessed as decrease in plasma 11,12-DHET levels at 10 mg/kg, po measured after 6 hrs relative to control; format: functional; set-up: scale not given: the % may be the effect or the level left
[10] = tested on: Mus musculus; assay: Anti-inflammatory activity in BALB/c mouse model of carrageenan-induced paw edema assessed as decrease in plasma 14,15-DHET levels at 10 mg/kg, po measured after 6 hrs relative to control; format: functional; set-up: scale not given: the % may be the effect or the level left
[11] = tested on: Rattus norvegicus; assay: Anti-inflammatory activity in Sprague-Dawley rat model of CFA-induced rheumatoid arthritis assessed as improvement in joint tissue structure at 10 mg/kg, po administered daily measured after 19 days by H and E staining based analysis; format: functional, organism-based; settings: time 19.0 day
[12] = tested on: RAW264.7; assay: Anti-inflammatory activity in LPS-indeced mouse RAW264.7 cells assessed as reduction in TNF-alpha level at 10 uM preincubated for 1 hr followed by LPS addition measured after 24 hrs by ELISA; format: functional, cell-based; settings: time 25.0 hrs
[13] = tested on: Rattus norvegicus; assay: Anti-inflammatory activity in Sprague-Dawley rat model of CFA-induced rheumatoid arthritis assessed as decrease in swelling degree of left paw at 10 mg/kg, po administered daily measured after 16 to 19 days; format: functional, organism-based; settings: time 16-19 day
[14] = tested on: Rattus norvegicus; assay: Anti-inflammatory activity in Sprague-Dawley rat model of CFA-induced rheumatoid arthritis assessed as improvement in food intake at 10 mg/kg, po administered daily measured for 19 days; format: functional, organism-based; settings: time 19.0 day
[15] = tested on: Rattus norvegicus; assay: Anti-inflammatory activity in Sprague-Dawley rat model of CFA-induced rheumatoid arthritis assessed as improvement in body weight at 10 mg/kg, po administered daily measured for 19 days; format: functional, organism-based; settings: time 19.0 day
[16] = tested on: Rattus norvegicus; assay: Anti-inflammatory activity in Sprague-Dawley rat model of CFA-induced rheumatoid arthritis assessed as improvement in chondrocytes morphology at 10 mg/kg, po administered daily measured after 19 days by H and E staining based analysis; format: functional, organism-based; settings: time 19.0 day
[17] = tested on: Rattus norvegicus; assay: Anti-inflammatory activity in Sprague-Dawley rat model of CFA-induced rheumatoid arthritis assessed as reduction in hyperplasia in synovial tissue at 10 mg/kg, po administered daily measured after 19 days by H and E staining based analysis; format: functional, organism-based; settings: time 19.0 day
[18] = tested on: Rattus norvegicus; assay: Anti-inflammatory activity in Sprague-Dawley rat model of CFA-induced rheumatoid arthritis assessed as […] in new blood vessel formation in synovial tissue at 10 mg/kg, po administered daily measured after 19 days by H and E staining based analysis; format: functional, organism-based; settings: time 19.0 day
[19] = tested on: Rattus norvegicus; assay: Anti-inflammatory activity in Sprague-Dawley rat model of CFA-induced rheumatoid arthritis assessed as BV/TV value at 10 mg/kg, po administered daily measured after 19 days by micro-CT analysis (reference value: 40.047 %); format: functional; settings: time 19 day
[20] = tested on: Rattus norvegicus; assay: Anti-inflammatory activity in Sprague-Dawley rat model of CFA-induced rheumatoid arthritis assessed as BV value at 10 mg/kg, po administered daily measured after 19 days by micro-CT analysis (reference value: 37.091 mm3); format: functional; settings: time 19 day
[21] = tested on: Mus musculus; assay: Anti-inflammatory activity in CD-1 mouse model of cerulein-induced acute pancreatitis assessed as decrease in plasma IL-6 level at 10 mg/kg, ip drug administered at 30 mins and 2.5 hrs post-first cerulein injection and measured after 6 hrs post-first cerulein injection; format: functional, organism-based; settings: time 3.5-5.5 hrs
[22] = tested on: Mus musculus; assay: Anti-inflammatory activity in CD-1 mouse model of cerulein-induced acute pancreatitis assessed as decrease in plasma TNF-alpha level at 10 mg/kg, ip drug administered at 30 mins and 2.5 hrs post-first cerulein injection and measured after 6 hrs post-first cerulein injection; format: functional, organism-based; settings: time 3.5-5.5 hrs
[23] = tested on: Mus musculus; assay: (§1) Anti-inflammatory activity in CD-1 mouse model of cerulein-induced acute pancreatitis assessed as increase in ratio of pancreatic EET/DHET level at 10 mg/kg, ip drug administered at 30 mins and 2.5 hrs post-first cerulein injection and measured after 6 hrs post-first cerulein injection (reference value: 23.5 to 41.7 %); format: functional; settings: time 3.5-5.5 hrs
[24] = tested on: Mus musculus; assay: as §1, with “plasma 8,9-EET/DHET” for “pancreatic EET/DHET”, “69.8” for “23.5”, “77.3” for “41.7”; format: functional; settings: time 3.5-5.5 hrs
[25] = tested on: Mus musculus; assay: Analgesic effect in BALB/c mouse model of acetic acid-induced writhing assessed as reduction in number of writhing episodes at 20 mg/kg, po pretreated for 1 hr followed by acetic acid treatment and measured after 5 to 35 mins relative to control; format: functional; set-up: scale not given: the % may be the effect or the level left; settings: time 65-95 min
[26] = target: Cytochrome P450 2C9 (Homo sapiens, UniProt P11712); assay: Inhibition of CYP2C9 in human liver microsomes preincubated for 10 mins followed by NADPH addition measured after 3.5 mins by LC-MS/MS analysis; format: ADME, Microsome
[27] = Cmax in plasma of C57BL/6J mouse at 20 mg/kg, po measured for 24 hrs; format: ADME, organism-based
[28] = Ratio of Cmax in liver to plasma in C57BL/6J mouse at 20 mg/kg, po measured for 24 hrs; format: ADME, organism-based; settings: liver and plasma
[29] = Ratio of Cmax in brain to plasma in C57BL/6J mouse at 20 mg/kg, po measured for 24 hrs; format: ADME, organism-based; settings: brain and plasma
[30] = AUC (0 to 24 hrs) in kidney of C57BL/6J mouse at 20 mg/kg, po measured for 24 hrs; format: ADME, organism-based
[31] = Volume of distribution in Sprague-Dawley rat at 20 mg/kg, po measured for 24 hrs; format: ADME, organism-based; settings: in vivo
[32] = Clearance in Sprague-Dawley rat at 20 mg/kg, po measured for 24 hrs; format: ADME, organism-based; settings: in vivo
[33] = Volume of distribution in Sprague-Dawley rat at 5 mg/kg, iv measured for 24 hrs; format: ADME, organism-based; settings: in vivo
[34] = Clearance in Sprague-Dawley rat at 5 mg/kg, iv measured for 24 hrs; format: ADME, organism-based; settings: in vivo

Cytochrome P450 2C9, sequence (P11712 whole entry): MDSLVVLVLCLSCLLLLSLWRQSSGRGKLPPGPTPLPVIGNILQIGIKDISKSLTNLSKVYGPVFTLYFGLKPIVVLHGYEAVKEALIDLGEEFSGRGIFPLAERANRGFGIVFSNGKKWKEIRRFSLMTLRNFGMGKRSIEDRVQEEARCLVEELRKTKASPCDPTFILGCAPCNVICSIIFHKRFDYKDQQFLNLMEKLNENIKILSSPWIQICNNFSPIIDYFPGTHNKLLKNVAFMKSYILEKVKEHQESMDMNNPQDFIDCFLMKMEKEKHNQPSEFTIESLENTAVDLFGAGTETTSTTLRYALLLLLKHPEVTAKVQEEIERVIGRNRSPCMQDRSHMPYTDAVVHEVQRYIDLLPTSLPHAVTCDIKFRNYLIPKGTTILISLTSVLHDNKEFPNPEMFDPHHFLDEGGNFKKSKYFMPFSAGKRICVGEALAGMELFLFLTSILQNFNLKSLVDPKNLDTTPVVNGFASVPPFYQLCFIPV

COc1cc(CC(=O)N2CCC(NC(=O)NCc3ccc(OC(F)(F)F)cc3)CC2)cc(OC)c1
Activity [1]: Active | inhibition in vivo at 20 mg/kg [2]: 44.6% | inhibition in vivo at 20 mg/kg [3]: 38.1% | inhibition in vivo at 1 mg/kg [4]: 34% | inhibition in vivo at 10 mg/kg [5]: 20.8% | inhibition in vivo at 1 mg/kg [6]: 22% | Activity [7]: 355% | Activity [8]: 70.3% | Activity [9]: 55.1% | Activity [10]: 69.8% | Activity [11]: Active | Activity [12]: Active | Activity [13]: Active | Activity [14]: Active | Activity [15]: Active | Activity [16]: Active | Activity [17]: Active; Mild Hyperplasia Was Observed | Activity [18]: Active; Few Newly Formed Blood Vessels Was Observed | Activity [19]: 62.73% | Activity [20]: 36.234 mm3 | Activity [21]: Active | Activity [22]: Active | Activity [23]: 311% | Activity [24]: 558% | Activity [25]: 42% | IC50 [26]: 48.2 µM | Cmax [27]: 482 ng/mL | Kp at 24 h [28]: 6.71 | Kp at 24 h [29]: 0.06 | AUC(0-t) at 24 h [30]: 17200 ng·h/mL | Vd [31]: 74.6 L/kg | CL/F [32]: 470 mL/min/kg | Vd [33]: 1.39 L/kg | clearance [34]: 38.8 mL/min/kg

Reference: ChEMBL document CHEMBL6109155, “Discovery of Phenylacylpiperidine as Novel sEH Inhibitors through Scaffold Hopping of Natural Stilbene” (J Med Chem, 2025)
